The results in this text go back to PubChem BioAssay (NCI).

Test systems include 786-0 renal; A549 NSCLC; CCRF-CEM leukemia; HCC-2998 colon; MALME-3M melanoma; NCI/ADR-RES ovarian; RPMI-8226 leukemia; SW-620 colon; UACC-257 melanoma; UO-31 renal.
Experiment in all cases: NCI-60 cell line screen, 48 h

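The compound was tested at five concentrations on cells cultured in 96-well plates, with a 48-hour exposure period. GI50 marks 50% less growth. Definition used: TGI = concentration required for complete inhibition of growth.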

Turning to `COc1ccc(/C=C(\C#N)n2nnc3c(F)cccc32)cc1`, the GI50 in the assay with 786-0 renal is 0.607 µM; in the assay with A549 NSCLC, 780 nM; in the assay with CCRF-CEM leukemia, 311 nM; in the assay with HCC-2998 colon, 1160 nM; in the assay with MALME-3M melanoma, 517 nM; in the assay with NCI/ADR-RES ovarian it was 181 nM. In addition, the GI50 was 409 nM with RPMI-8226 leukemia, 200 nM in the assay with SW-620 colon, 1160 nM with UACC-257 melanoma and 573 nM with UO-31 renal. The TGI with 786-0 renal is greater than 51.2 µM; in the assay with A549 NSCLC, greater than 100 µM; with CCRF-CEM leukemia, greater than 100 µM; in the assay on HCC-2998 colon, greater than 47 µM; in the assay on MALME-3M melanoma, greater than 100 µM; in the assay with NCI/ADR-RES ovarian, 4.52 µM. Besides, the TGI with RPMI-8226 leukemia, in the assay with SW-620 colon, in the assay on UACC-257 melanoma and in the assay with UO-31 renal was greater than 100 µM throughout.

`COc1ncnc(NS(=O)(=O)c2ccc(N=C3C(=O)N(CN4CCN(c5c(F)cc6c(=O)c(C(=O)O)cn(C7CC7)c6c5OC)CC4C)c4ccc(Br)cc43)cc2)c1OC` (stereo not given): the GI50 in the assay on 786-0 renal was 38.8 µM; in the assay on A549 NSCLC, 4780 nM; in the assay with NCI/ADR-RES ovarian, 7060 nM; in the assay on RPMI-8226 leukemia, 5540 nM; in the assay on SW-620 colon, 9410 nM; in the assay on UACC-257 melanoma, 16900 nM. Also, in the assay with UO-31 renal, the GI50 is greater than 50000 nM. Further, the TGI was greater than 50 µM in the assay with 786-0 renal; greater than 50 µM in the assay with A549 NSCLC; greater than 50 µM in the assay on NCI/ADR-RES ovarian; 22.3 µM in the assay on RPMI-8226 leukemia; greater than 50 µM in the assay with SW-620 colon; greater than 50 µM with UACC-257 melanoma. This molecule also had a TGI in the assay on UO-31 renal greater than 50 µM.

As to `COc1ccc(-c2nc(/C=C3\SC(=NCc4ccccc4)NC3=O)c3ccccn23)cc1`, the GI50 is 0.189 µM in the assay on 786-0 renal; 1580 nM with A549 NSCLC; 2830 nM with CCRF-CEM leukemia; 1680 nM in the assay with HCC-2998 colon; 1390 nM with NCI/ADR-RES ovarian; 1680 nM with SW-620 colon. The GI50 is 1520 nM in the assay on UACC-257 melanoma and 1490 nM with UO-31 renal. Besides, the TGI in the assay on 786-0 renal is 0.498 µM; with A549 NSCLC it was 4.25 µM; in the assay on CCRF-CEM leukemia it was greater than 100 µM; in the assay with HCC-2998 colon, 4.83 µM; with NCI/ADR-RES ovarian it was 5.76 µM; in the assay with SW-620 colon it was 3.45 µM. In addition, the TGI in the assay with UACC-257 melanoma came to 3.51 µM; with UO-31 renal, 3 µM.

In the case of `O=C(CCCCCCN1CC(=O)N2[C@@H](c3ccc(Cl)c(Cl)c3)c3[nH]c4ccccc4c3C[C@H]2C1=O)NO`, the GI50 was 4.63 µM with 786-0 renal; 4990 nM in the assay with A549 NSCLC; 1070 nM with CCRF-CEM leukemia; 3900 nM in the assay with HCC-2998 colon; 2700 nM with MALME-3M melanoma; greater than 33300 nM in the assay on NCI/ADR-RES ovarian. The values for the GI50 in the assay on SW-620 colon, with UACC-257 melanoma and in the assay with UO-31 renal were 1970 nM, 3810 nM and 3520 nM, respectively. Further, the TGI was 9.39 µM in the assay on 786-0 renal; 13.6 µM in the assay on A549 NSCLC; greater than 33.3 µM in the assay with CCRF-CEM leukemia; 8.38 µM in the assay with HCC-2998 colon; 14.8 µM in the assay with MALME-3M melanoma; greater than 33.3 µM with NCI/ADR-RES ovarian. For the same molecule, the TGI with SW-620 colon is 9.3 µM; with UACC-257 melanoma, 18.2 µM; in the assay with UO-31 renal, 8.86 µM.

As for `CC1(C)CC(=O)C2=C(C1)OC(N)=C(c1nc(-c3ccccc3)cs1)C2c1ccc(Br)cc1` (stereo not given), the GI50 is 100 µg/mL in the assay on 786-0 renal; 53.1 µg/mL in the assay on A549 NSCLC; 58.6 µg/mL in the assay with CCRF-CEM leukemia; 44.4 µg/mL with HCC-2998 colon; greater than 150 µg/mL in the assay on MALME-3M melanoma; 106 µg/mL in the assay on NCI/ADR-RES ovarian. Also, the figures for the GI50 with SW-620 colon and in the assay with UACC-257 melanoma were 86 µg/mL and 97.1 µg/mL, respectively. The TGI in the assay on 786-0 renal, in the assay with A549 NSCLC, in the assay with CCRF-CEM leukemia, with HCC-2998 colon, in the assay on MALME-3M melanoma and with NCI/ADR-RES ovarian was greater than 150 µg/mL in each case. The TGI in the assay with SW-620 colon and with UACC-257 melanoma was greater than 150 µg/mL in each case.

On to `Cc1ccc(-c2nc([P+](c3ccccc3)(c3ccccc3)c3ccccc3)c(S(=O)(=O)c3ccc(C)cc3)o2)cc1`, for which the GI50 is 1.46 µM with 786-0 renal; 2000 nM with A549 NSCLC; 606 nM in the assay on CCRF-CEM leukemia; 1450 nM in the assay with HCC-2998 colon; 1020 nM in the assay on MALME-3M melanoma; 2940 nM with NCI/ADR-RES ovarian. The GI50 in the assay with SW-620 colon was 929 nM; in the assay with UACC-257 melanoma, 1700 nM; with UO-31 renal it was 1320 nM. Moreover, the TGI is 2.85 µM with 786-0 renal; 5.14 µM in the assay on A549 NSCLC; 6.94 µM in the assay with CCRF-CEM leukemia; 3.01 µM in the assay on HCC-2998 colon; 2.19 µM in the assay with MALME-3M melanoma; 18 µM with NCI/ADR-RES ovarian. The TGI amounted to 2.47 µM in the assay with SW-620 colon, 3.7 µM in the assay with UACC-257 melanoma and 2.6 µM in the assay on UO-31 renal.

As for `O=C1c2sccc2-c2cccc3cccc1c23` (tested in a mixture with another compound), the TGI in the assay on 786-0 renal was greater than 100 µM; with A549 NSCLC, 16.8 µM; in the assay on CCRF-CEM leukemia it was 12.8 µM; in the assay on MALME-3M melanoma it was 9.06 µM; with NCI/ADR-RES ovarian, 47.2 µM; in the assay with RPMI-8226 leukemia, 0.668 µM. The TGI was determined as 17.2 µM with SW-620 colon, 38.9 µM in the assay with UACC-257 melanoma and 78.3 µM with UO-31 renal.

For the molecule `O=C(O)CCC(=O)c1ccc2sc3ccccc3c2c1`, the TGI in the assay on 786-0 renal, in the assay with A549 NSCLC, with MALME-3M melanoma, in the assay on NCI/ADR-RES ovarian, with RPMI-8226 leukemia and with SW-620 colon was greater than 100 µM throughout. In addition, the TGI in the assay on UACC-257 melanoma and in the assay with UO-31 renal was greater than 100 µM throughout.

Regarding `O=C(O)c1cccc(C(=O)O)c1S(=O)Cc1ccccc1` (stereo not given), the TGI in the assay with 786-0 renal, in the assay with A549 NSCLC, with HCC-2998 colon, in the assay on MALME-3M melanoma, with NCI/ADR-RES ovarian and with RPMI-8226 leukemia was greater than 100 µM throughout. The TGI in the assay with SW-620 colon, in the assay on UACC-257 melanoma and in the assay on UO-31 renal was greater than 100 µM in each case.

Consider `COc1cc2c(cc1OC)-c1ncc3c(OC)c(OC)c(OC)cc3c1C2`, for which the GI50 with 786-0 renal was 36.7 µM; with A549 NSCLC, 19100 nM; in the assay on HCC-2998 colon, 47700 nM; in the assay on NCI/ADR-RES ovarian, 13400 nM; in the assay with RPMI-8226 leukemia it was 2500 nM; in the assay with SW-620 colon it was 34200 nM. For the same molecule, the GI50 in the assay with UO-31 renal is 3410 nM. Besides, the TGI in the assay on 786-0 renal was greater than 100 µM; with A549 NSCLC it was 40.7 µM; in the assay with HCC-2998 colon it was greater than 100 µM; in the assay on NCI/ADR-RES ovarian it was 45 µM; in the assay with RPMI-8226 leukemia it was 32.3 µM; with SW-620 colon, greater than 100 µM. The same molecule registered a TGI in the assay on UO-31 renal of 15.7 µM.

On to `COc1ccc(N(CC(=O)NCCC[Te]c2ccccc2)C(=O)CNC(=O)OC(C)(C)C)cc1`, for which the GI50 with 786-0 renal is 3.75 µM; in the assay on A549 NSCLC it was 521 nM; with HCC-2998 colon, 2600 nM; in the assay on MALME-3M melanoma, 15700 nM; in the assay with NCI/ADR-RES ovarian, 2910 nM; in the assay on RPMI-8226 leukemia, 2400 nM. For the same molecule, the GI50 is 3440 nM with SW-620 colon, 8490 nM in the assay on UACC-257 melanoma and 2380 nM with UO-31 renal. The TGI in the assay on 786-0 renal was 13 µM; with A549 NSCLC, 2.17 µM; in the assay with HCC-2998 colon, 6.6 µM; in the assay with MALME-3M melanoma, 32.8 µM; in the assay on NCI/ADR-RES ovarian, 7.16 µM; with RPMI-8226 leukemia, 7.3 µM. The TGI with SW-620 colon is 14.4 µM; with UACC-257 melanoma it was 23.9 µM; in the assay with UO-31 renal it was 9.04 µM.

For `C[N+](C)(C)CC1CCCC1=O` (stereo not given), the TGI turned out to be 5.32 µM in the assay on 786-0 renal; 35.7 µM with A549 NSCLC; 29.9 µM with HCC-2998 colon; 1.61 µM in the assay with MALME-3M melanoma; 4.05 µM in the assay with NCI/ADR-RES ovarian; 11.2 µM with RPMI-8226 leukemia. Moreover, the TGI in the assay with SW-620 colon came out at 1.07 µM; in the assay on UACC-257 melanoma, 13.3 µM; in the assay with UO-31 renal, 8.79 µM.

Regarding `c1ccc(CCc2cccnc2)nc1`, the TGI in the assay on 786-0 renal, with A549 NSCLC, in the assay with MALME-3M melanoma, in the assay on NCI/ADR-RES ovarian, in the assay with RPMI-8226 leukemia and in the assay on SW-620 colon was greater than 100 µM in each case. The TGI in the assay with UACC-257 melanoma and with UO-31 renal was greater than 100 µM in each case.

In the case of `Cc1ccccc1NC(=O)C(=O)C(C#N)c1ccccc1C` (stereo not given), the TGI with 786-0 renal was greater than 100 µM; in the assay on A549 NSCLC, greater than 100 µM; in the assay with CCRF-CEM leukemia, 89.8 µM; with HCC-2998 colon, greater than 100 µM; with MALME-3M melanoma, greater than 100 µM; in the assay with RPMI-8226 leukemia, greater than 100 µM. Moreover, the TGI with SW-620 colon was 36.5 µM; in the assay on UACC-257 melanoma it was greater than 100 µM; in the assay with UO-31 renal it was greater than 100 µM.

Turning to `O=c1[nH]cc(F)c(=O)n1C1OC(CO)C(O)C1O` (stereo not given), the TGI with 786-0 renal, in the assay with A549 NSCLC, in the assay on CCRF-CEM leukemia, in the assay with HCC-2998 colon, with MALME-3M melanoma and with RPMI-8226 leukemia was greater than 100 µM throughout. Further, the TGI in the assay on SW-620 colon, in the assay with UACC-257 melanoma and with UO-31 renal was greater than 100 µM throughout.
